Source: the supplement of paper PMC10307832

Tests used:
Assay in all cases: relative viability (nuclei count vs DMSO), 5 days (fraction); higher = more cells survive
[1] = compound: COc1cc(-c2nn([C@H]3CC[C@H](N4CCN(C(C)=O)CC4)CC3)c3ncnc(N)c23)ccc1NC(=O)c1cc2ccccc2n1C + C[C@@H](Oc1cc(-c2cnn(C3CCNCC3)c2)cnc1N)c1c(Cl)ccc(F)c1Cl [Crizotinib] (partner 1 µM)
In short: (§1)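 Relative viability divides the nuclei count in treated wells by that in vehicle wells. Lung cancer cell lines were seeded in 1536-well plates, dosed by pin tool the next day, and fixed and stained after 5 days in one step with final 0.05% Triton X-100, 1% formaldehyde and 1 ug/ml Hoechst. Dosing was a single drug or a fixed anchor-drug dose plus five library-drug doses (not always all listed) in √10 steps, and values are medians of duplicate plates imaged at 4×.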

[2] = compound: COc1cc(-c2nn([C@H]3CC[C@H](N4CCN(C(C)=O)CC4)CC3)c3ncnc(N)c23)ccc1NC(=O)c1cc2ccccc2n1C + Nc1nc2[nH]cc(CCc3ccc(C(=O)N[C@@H](CCC(=O)O)C(=O)O)cc3)c2c(=O)[nH]1 [Pemetrexed] (partner 0.2 µM)
In short: as §1

[3] = compound: COc1cc(-c2nn([C@H]3CC[C@H](N4CCN(C(C)=O)CC4)CC3)c3ncnc(N)c23)ccc1NC(=O)c1cc2ccccc2n1C + O=C(c1cc(Cc2n[nH]c(=O)c3ccccc23)ccc1F)N1CCN(C(=O)C2CC2)CC1 [Olaparib] (partner 8 µM)
In short: as §1

Midostaurin + Linsitinib = compound: CO[C@@H]1[C@H](N(C)C(=O)c2ccccc2)C[C@H]2O[C@]1(C)n1c3ccccc3c3c4c(c5c6ccccc6n2c5c31)C(=O)NC4 [Midostaurin] + C[C@]1(O)C[C@@H](c2nc(-c3ccc4ccc(-c5ccccc5)nc4c3)c3c(N)nccn32)C1 [Linsitinib] (partner 1 µM)
In short: as §1

[4] = compound: COc1cc(-c2nn([C@H]3CC[C@H](N4CCN(C(C)=O)CC4)CC3)c3ncnc(N)c23)ccc1NC(=O)c1cc2ccccc2n1C + COc1cccc2cc(-c3nc([C@H]4CC[C@H](C(=O)O)CC4)n4ncnc(N)c34)[nH]c12 [OSI-027] (partner 0.5 µM)
In short: as §1

Cell Line	relative viability ([1]; first compound 0.0128 µM)	relative viability ([1]; first compound 0.04048 µM)	relative viability ([1]; first compound 0.128 µM)	relative viability ([1]; first compound 1.28 µM)	relative viability ([2]; first compound 0.0128 µM)	relative viability ([2]; first compound 0.04048 µM)	relative viability ([2]; first compound 0.128 µM)	relative viability ([2]; first compound 1.28 µM)	relative viability ([3]; first compound 0.0128 µM)	relative viability ([3]; first compound 0.04048 µM)	relative viability ([3]; first compound 0.128 µM)	relative viability ([3]; first compound 1.28 µM)	relative viability (Midostaurin + Linsitinib; first compound 0.01 µM)	relative viability (Midostaurin + Linsitinib; first compound 0.03162 µM)	relative viability (Midostaurin + Linsitinib; first compound 0.1 µM)	relative viability (Midostaurin + Linsitinib; first compound 0.3162 µM)	relative viability ([4]; first compound 0.0128 µM)	relative viability ([4]; first compound 0.04048 µM)	relative viability ([4]; first compound 0.128 µM)	relative viability ([4]; first compound 1.28 µM)
HCC-78	0.338	0.432	0.325	0.18	0.939	0.879	0.889	0.91	0.938	0.933	0.768	0.456	0.53	0.483	0.556	0.278	0.341	0.371	0.356	0.26
NCI-H322M	0.999	0.871	0.767	0.878	0.603	0.643	0.604	0.538	0.818	0.801	0.693	0.691	0.993	0.945	1.08	1.08	0.584	0.509	0.5	0.526
NCI-H3122	0.289		0.269	0.229	0.19		0.201	0.194	0.683		0.64	0.621	0.913	0.987	1.13	1.05	0.992	0.333	0.969	0.847
COR-L23	0.59	0.845	0.675	0.602	0.193	0.206	0.189	0.204	0.347	0.41	0.367	0.395	0.863	0.802	0.764	0.764	0.753	0.752	0.71	0.672
NCI-H2087	1.1	1	0.703	0.947	0.601		0.697	0.707	0.644		0.616	0.722	0.985	0.885	0.934	1.01	0.692		0.611	0.648
LC-2-ad	0.443	0.399	0.414	0.409	0.304	0.277	0.243	0.275	0.783	0.835	0.658	0.8	0.851	0.768	0.849	0.631	0.932	0.776	0.864	0.691
NCI-H1915	0.87	0.942	0.866	0.869	0.536	0.452	0.488	0.5	0.273	0.285	0.262	0.248	1.05	1.06	1.09	1.11	0.677	0.404	0.585	0.481
NCI-H2023	0.587	0.736	0.592	0.412	0.258	0.211	0.229	0.242	0.519	0.505	0.414	0.449	0.653	0.617	0.515	0.403	0.409	0.4	0.423	0.28
